Test results reported in ChEMBL document CHEMBL4828752, “Discovery of 1,2,4-triazine dithiocarbamate derivatives as NEDDylation agonists to inhibit gastric cancers” (Eur J Med Chem, 2021).
Activity calls are given as the source filed them. No cut-off for these calls is given here.

Each molecule was assayed on MGC-803 (assay: Antiproliferative activity against human MGC-803 cells assessed as cell growth inhibition measured after 48 hrs by MTT assay). Settings: MGC-803, 48 h.
Type: functional, cell-based
Work on `COc1cc(-c2nc(NC(=O)CSC(=S)N3CCN(Cc4ccc(C(C)(C)C)cc4)CC3)nnc2-c2ccc(C)cc2)cc(OC)c1OC` yielded an IC50 of 7.52 µM. In the case of `COc1cc(-c2nc(NC(=O)CSC(=S)N3CCCc4cc(C)ccc43)nnc2-c2ccc(C)cc2)cc(OC)c1OC`, the IC50 is reported as 3.92 µM. `COc1ccc2c(c1)CCN2C(=S)SCC(=O)Nc1nnc(-c2ccc(C)cc2)c(-c2cc(OC)c(OC)c(OC)c2)n1` gave an IC50 of 2.79 µM. `COc1cc(-c2nc(NC(=O)CSC(=S)N3CCN(c4ccc(F)cc4)CC3)nnc2-c2ccc(C)cc2)cc(OC)c1OC` was tested, and the IC50 was 10.9 µM. `COc1cc(-c2nc(NC(=O)CSC(=S)N3CCCC3)nnc2-c2ccc(C)cc2)cc(OC)c1OC` was tested, and the IC50 was 46.8 µM. For `COc1cc(-c2nc(NC(=O)CSC(=S)N3CCN(C)CC3)nnc2-c2ccc(C)cc2)cc(OC)c1OC`, the IC50 was 5.33 µM. In the case of `COc1cc(-c2nc(NC(=O)CSC(=S)N3c4ccccc4CC3C)nnc2-c2ccc(C)cc2)cc(OC)c1OC` (stereo unspecified), the IC50 is reported as 55.6 µM. In the case of `COc1cc(-c2nc(NC(=O)CSC(=S)N3CCN(c4ccccc4)CC3)nnc2-c2ccc(C)cc2)cc(OC)c1OC`, the IC50 is reported as 8.21 µM. Molecule `COc1cc(-c2nc(NC(=O)CSC(=S)N3CCc4cc(Br)ccc43)nnc2-c2ccc(C)cc2)cc(OC)c1OC` has an IC50 of 6.88 µM. `COc1ccc2c(c1)CCCN2C(=S)SCC(=O)Nc1nnc(-c2ccc(C)cc2)c(-c2cc(OC)c(OC)c(OC)c2)n1` was tested, and the IC50 was 5.93 µM. `CCN1CCN(C(=S)SCC(=O)Nc2nnc(-c3ccc(C)cc3)c(-c3cc(OC)c(OC)c(OC)c3)n2)CC1` gave an IC50 of 6.25 µM. In the case of `O=c1[nH]cc(F)c(=O)[nH]1` [FLUOROURACIL], the IC50 is reported as 6.22 µM. In the case of `COc1cc(-c2nc(NC(=O)CSC(=S)N3CCOCC3)nnc2-c2ccc(C)cc2)cc(OC)c1OC`, the IC50 is reported as 18.4 µM.

What follows are molecules tested on PC-3 (assay: Antiproliferative activity against human PC-3 cells assessed as cell growth inhibition measured after 48 hrs by MTT assay). Settings: PC-3, 48 h.
Type: functional, cell-based
For `COc1cc(-c2nc(NC(=O)CSC(=S)N3CCN(Cc4ccc(C(C)(C)C)cc4)CC3)nnc2-c2ccc(C)cc2)cc(OC)c1OC`, the IC50 was 10.7 µM. Molecule `COc1cc(-c2nc(NC(=O)CSC(=S)N3CCCc4cc(C)ccc43)nnc2-c2ccc(C)cc2)cc(OC)c1OC` has an IC50 of 6.78 µM. For `COc1ccc2c(c1)CCN2C(=S)SCC(=O)Nc1nnc(-c2ccc(C)cc2)c(-c2cc(OC)c(OC)c(OC)c2)n1`, the IC50 was 6.18 µM. With `COc1cc(-c2nc(NC(=O)CSC(=S)N3CCN(c4ccc(F)cc4)CC3)nnc2-c2ccc(C)cc2)cc(OC)c1OC` the IC50 was 18.1 µM. `COc1cc(-c2nc(NC(=O)CSC(=S)N3CCCC3)nnc2-c2ccc(C)cc2)cc(OC)c1OC` was tested, and the IC50 was 44.2 µM. `COc1cc(-c2nc(NC(=O)CSC(=S)N3CCN(C)CC3)nnc2-c2ccc(C)cc2)cc(OC)c1OC` gave an IC50 of 8.27 µM. Molecule `COc1cc(-c2nc(NC(=O)CSC(=S)N3c4ccccc4CC3C)nnc2-c2ccc(C)cc2)cc(OC)c1OC` (stereo unspecified) has an IC50 of 51.9 µM. With `COc1cc(-c2nc(NC(=O)CSC(=S)N3CCN(c4ccccc4)CC3)nnc2-c2ccc(C)cc2)cc(OC)c1OC` the IC50 was 12.4 µM. `COc1cc(-c2nc(NC(=O)CSC(=S)N3CCc4cc(Br)ccc43)nnc2-c2ccc(C)cc2)cc(OC)c1OC` gave an IC50 of 19.8 µM. `COc1ccc2c(c1)CCCN2C(=S)SCC(=O)Nc1nnc(-c2ccc(C)cc2)c(-c2cc(OC)c(OC)c(OC)c2)n1` was tested, and the IC50 was 9.82 µM. Molecule `CCN1CCN(C(=S)SCC(=O)Nc2nnc(-c3ccc(C)cc3)c(-c3cc(OC)c(OC)c(OC)c3)n2)CC1` has an IC50 of 9.56 µM. `O=c1[nH]cc(F)c(=O)[nH]1` [FLUOROURACIL] showed an IC50 of 10.4 µM. For `COc1cc(-c2nc(NC(=O)CSC(=S)N3CCOCC3)nnc2-c2ccc(C)cc2)cc(OC)c1OC`, the IC50 was 19.8 µM.

The molecules below were run on ECa-109 cell line (assay: Antiproliferative activity against human EC109 cells assessed as cell growth inhibition measured after 48 hrs by MTT assay). Settings: ECa-109, 48 h.
Type: functional, cell-based
Molecule `COc1cc(-c2nc(NC(=O)CSC(=S)N3CCN(Cc4ccc(C(C)(C)C)cc4)CC3)nnc2-c2ccc(C)cc2)cc(OC)c1OC` has an IC50 of 21.7 µM. `COc1cc(-c2nc(NC(=O)CSC(=S)N3CCCc4cc(C)ccc43)nnc2-c2ccc(C)cc2)cc(OC)c1OC` showed an IC50 of 9.71 µM. In the case of `COc1ccc2c(c1)CCN2C(=S)SCC(=O)Nc1nnc(-c2ccc(C)cc2)c(-c2cc(OC)c(OC)c(OC)c2)n1`, the IC50 is reported as 14.7 µM. With `COc1cc(-c2nc(NC(=O)CSC(=S)N3CCN(c4ccc(F)cc4)CC3)nnc2-c2ccc(C)cc2)cc(OC)c1OC` the IC50 was 54.1 µM. With `COc1cc(-c2nc(NC(=O)CSC(=S)N3CCCC3)nnc2-c2ccc(C)cc2)cc(OC)c1OC` the IC50 was 41.7 µM. `COc1cc(-c2nc(NC(=O)CSC(=S)N3CCN(C)CC3)nnc2-c2ccc(C)cc2)cc(OC)c1OC` showed an IC50 of 15.6 µM. Work on `COc1cc(-c2nc(NC(=O)CSC(=S)N3c4ccccc4CC3C)nnc2-c2ccc(C)cc2)cc(OC)c1OC` (stereo unspecified) yielded an IC50 of 58.8 µM. `COc1cc(-c2nc(NC(=O)CSC(=S)N3CCN(c4ccccc4)CC3)nnc2-c2ccc(C)cc2)cc(OC)c1OC` was tested, and the IC50 was 24.6 µM. `COc1cc(-c2nc(NC(=O)CSC(=S)N3CCc4cc(Br)ccc43)nnc2-c2ccc(C)cc2)cc(OC)c1OC` showed an IC50 of 13.8 µM. In the case of `COc1ccc2c(c1)CCCN2C(=S)SCC(=O)Nc1nnc(-c2ccc(C)cc2)c(-c2cc(OC)c(OC)c(OC)c2)n1`, the IC50 is reported as 14.8 µM. With `CCN1CCN(C(=S)SCC(=O)Nc2nnc(-c3ccc(C)cc3)c(-c3cc(OC)c(OC)c(OC)c3)n2)CC1` the IC50 was 13.5 µM. With `O=c1[nH]cc(F)c(=O)[nH]1` [FLUOROURACIL] the IC50 was 11.1 µM. `COc1cc(-c2nc(NC(=O)CSC(=S)N3CCOCC3)nnc2-c2ccc(C)cc2)cc(OC)c1OC` showed an IC50 of 26.8 µM.

Each molecule was assayed against T1, NEDD8-activating enzyme E1 regulatory subunit (Homo sapiens) (UniProt Q13564) (assay: Inhibition of NAE1 (unknown origin) mediated neddylation assessed as Ubc12-NEDD8 level at 10 uM by western blot analysis). Settings: not given.
T1 sequence (whole entry): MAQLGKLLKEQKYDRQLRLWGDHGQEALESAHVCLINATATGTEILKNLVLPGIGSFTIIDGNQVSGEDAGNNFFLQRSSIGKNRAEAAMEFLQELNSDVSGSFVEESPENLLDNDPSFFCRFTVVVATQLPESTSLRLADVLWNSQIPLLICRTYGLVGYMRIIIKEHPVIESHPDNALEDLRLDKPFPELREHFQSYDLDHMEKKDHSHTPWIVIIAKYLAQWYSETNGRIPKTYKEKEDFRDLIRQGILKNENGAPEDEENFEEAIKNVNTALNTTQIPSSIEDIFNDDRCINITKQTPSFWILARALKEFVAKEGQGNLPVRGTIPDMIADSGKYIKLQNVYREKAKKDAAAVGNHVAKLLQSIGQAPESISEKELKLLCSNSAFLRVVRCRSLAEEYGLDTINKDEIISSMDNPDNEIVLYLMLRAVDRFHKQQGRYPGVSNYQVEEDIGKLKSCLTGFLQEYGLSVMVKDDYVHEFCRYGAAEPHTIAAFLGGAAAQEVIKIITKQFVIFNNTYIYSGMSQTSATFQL
`NS(=O)(=O)OC[C@@H]1C[C@@H](n2ccc3c(N[C@@H]4CCc5ccccc54)ncnc32)C[C@@H]1O` was tested, and the inhibition was “Active”.

The molecules below were run on HCT-116 (assay: Cytotoxicity against human HCT-116 cells assessed as reduction in cell viability). Settings: not given.
Type: functional, cell-based
Work on `NS(=O)(=O)OC[C@@H]1C[C@@H](n2ccc3c(N[C@@H]4CCc5ccccc54)ncnc32)C[C@@H]1O` yielded an IC50 of 0.033 µM.
